pEC50, pIC50: −log10 of the molar value. Where “and” joins values, the source holds several entries; their conditions need not be identical. Identical values can stand only once.
What was measured:
[1] = target: T1, CD73 (Homo sapiens (Human), UniProt P21589); test: CD73 Biochemical IC50 Assay; details: CD73 0.3 nM, AMP 15 uM, 25 mM Tris pH 7.4, 5 mM MgCl2
Experimental: CD73 Biochemical IC50 Assay
Compound serial dilutions were pre-spotted into Thermo Nunc assay plate. 50 μL CD73 enzyme buffer (CD73 purchased from R&D system=0.6 nM, 25 mM Tris, pH 7.4, 5 mM MgCl2) was added into the assay plate and incubated for 15 mins. […] The samples were run using Rapid fire.

[2] = target: T1, CD73; test: MDA-MB-231 Cell Based CD73 Activity Assay; details: MDA-MB-231-GFP cells, RPMI medium with 10% human plasma, 200 uM AMP
Experimental: MDA-MB-231 Cell Based CD73 Activity Assay
MDA-MB-231-GFP cells were seeded in 384-well plates (Greiner 781946) at a density of 10000 cells per well in 50 μL of RPMI medium with 10% HP (human plasma). Cells were plated into assay plate with compounds pre-spotted, for an overnight compound treatment. 50 μL of 400 μM AMP (final concentration 200 μM) using a Bio-tek dispenser. Plates were incubated for 100 mins. […] The samples were run using Rapid fire.

[3] = target: T1, CD73; test: MDA-MB-231 Cell Based CD73 Activity Assay (DMEM); details: MDA-MB-231-GFP cells, DMEM medium with 10% human plasma, 200 uM AMP

T1 sequence (P21589 27-574): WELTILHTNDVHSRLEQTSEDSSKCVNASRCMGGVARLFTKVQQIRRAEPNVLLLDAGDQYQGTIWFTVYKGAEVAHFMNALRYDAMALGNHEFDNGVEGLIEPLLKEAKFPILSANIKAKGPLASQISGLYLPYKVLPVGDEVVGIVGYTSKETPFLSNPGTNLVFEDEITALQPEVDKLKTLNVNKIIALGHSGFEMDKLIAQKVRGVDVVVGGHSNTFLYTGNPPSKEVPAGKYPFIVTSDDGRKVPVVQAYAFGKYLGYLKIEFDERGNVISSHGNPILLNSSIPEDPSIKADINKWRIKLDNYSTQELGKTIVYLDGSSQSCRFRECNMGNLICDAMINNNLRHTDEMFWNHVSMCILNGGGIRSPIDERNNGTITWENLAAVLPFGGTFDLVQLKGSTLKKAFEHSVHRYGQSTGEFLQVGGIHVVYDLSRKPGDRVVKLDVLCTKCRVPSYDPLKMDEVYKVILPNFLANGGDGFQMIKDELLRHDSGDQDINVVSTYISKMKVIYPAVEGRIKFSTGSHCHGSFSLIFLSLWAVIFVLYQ

| Molecule | pIC50 [1] | pEC50 [2] | pEC50 [3] |
| --- | --- | --- | --- |
| 5-(8-((1S,2S)-2-(2,3,5-trifluorophenyl)cyclopropyl)imidazo[1,2-b]pyridazin-6-yl)pyrimidine-2,4(1H,3H)-dione and 5-(8-((1R,2R)-2-(2,3,5-trifluorophenyl)cyclopropyl)imidazo[1,2-b]pyridazin-6-yl)pyrimidine-2,4(1H,3H)-dione [Example 61] | 7.92 | 7.78 | – |
| 5-(8-((1S,2S)-2-phenylcyclopropyl)imidazo[1,2-b]pyridazin-6-yl)pyrimidine-2,4-(1H,3H)-dione and 5-(8-((1R,2R)-2-phenylcyclopropyl)imidazo[1,2-b]pyridazin-6-yl)pyrimidine-2,4-(1H,3H)-dione [Example 104] | 6.71 | 7.64 | – |
| O=c1[nH]cc(-c2cc([C@H]3C[C@@H]3c3ccc(OC(F)(F)F)cc3)c3nccn3n2)c(=O)[nH]1 (mixture of isomers) [Example 48, 5-(8-((1S,2S)-2-(4-(trifluoromethoxy)phenyl)cyclopropyl)imidazo[1,2-b]pyridazin-6-yl)pyrimidine-2,4(1H,3H)-dione and 5-(8-((1R,2R)-2-(4-(trifluoromethoxy)phenyl)cyclopropyl)imidazo[1,2-b]pyridazin-6-yl)pyrimidine-2,4(1H,3H)-dione] | – | 7.78 | – |
| O=c1[nH]cc(-c2cc([C@H]3C[C@@H]3c3ccc(C(F)(F)F)c(F)c3)c3nccn3n2)c(=O)[nH]1 (mixture of isomers) [Example 100, 5-(8-((1S,2S)-2-(3-fluoro-4-(trifluoromethyl)phenyl)cyclopropyl)imidazo[1,2-b]pyridazin-6-yl)pyrimidine-2,4(1H,3H)-dione and 5-(8-((1R,2R)-2-(3-fluoro-4-(trifluoromethyl)phenyl)cyclopropyl)imidazo[1,2-b]pyridazin-6-yl)pyrimidine-2,4(1H,3H)-dione] | – | 7.56 | – |
| O=c1[nH]cc(-c2cc([C@H]3C[C@@H]3C3CC(F)(F)C3)c3nccn3n2)c(=O)[nH]1 (mixture of isomers) [Example 106, 5-(8-((1S,2R)-2-(3,3-difluorocyclobutyl)cyclopropyl)imidazo[1,2-b]pyridazin-6-yl)pyrimidine-2,4(1H,3H)-dione and 5-(8-((1R,2S)-2-(3,3-difluorocyclobutyl)cyclopropyl)imidazo[1,2-b]pyridazin-6-yl)pyrimidine-2,4(1H,3H)-dione] | – | 7.03 | – |
| O=c1[nH]cc(-c2cc([C@H]3C[C@@H]3C(F)(F)F)c3nccn3n2)c(=O)[nH]1 (mixture of isomers) [Example 107, 5-(8-((1S,2S)-2-(trifluoromethyl)cyclopropyl)imidazo[1,2-b]pyridazin-6-yl)pyrimidine-2,4(1H,3H)-dione and 5-(8-((1R,2R)-2-(trifluoromethyl)cyclopropyl)imidazo[1,2-b]pyridazin-6-yl)pyrimidine-2,4(1H,3H)-dione] | – | 7.26 | – |
| O=c1[nH]cc(-c2cc([C@H]3C[C@]3(F)c3ccccc3)c3nccn3n2)c(=O)[nH]1 (mixture of isomers) [Example 108, 5-(8-((1R,2R)-2-fluoro-2-phenylcyclopropyl)imidazo[1,2-b]pyridazin-6-yl)pyrimidine-2,4(1H,3H)-dione and 5-(8-((1S,2S)-2-fluoro-2-phenylcyclopropyl)imidazo[1,2-b]pyridazin-6-yl)pyrimidine-2,4(1H,3H)-dione] | – | 7.62 | – |
| COC[C@H]1C[C@@H]1c1cc(-c2c[nH]c(=O)[nH]c2=O)nn2ccnc12 (racemic) [Example 4, 5-(8-((1S,2S)-2-(methoxymethyl)cyclopropyl)imidazo[1,2-b]pyridazin-6-yl)pyrimidine-2,4(1H,3H)-dione and 5-(8-((1R,2R)-2-(methoxymethyl)cyclopropyl)imidazo[1,2-b]pyridazin-6-yl)pyrimidine-2,4(1H,3H)-dione] | 6.71 and 6.64 | 6.72 and 6.54 | – |
| O=c1[nH]cc(-c2cc([C@H]3CC34CCC4)c3nccn3n2)c(=O)[nH]1 (racemic) [Example 5, (S)-5-(8-(spiro[2.3]hexan-1-yl)imidazo[1,2-b]pyridazin-6-yl)pyrimidine-2,4(1H,3H)-dione and (R)-5-(8-(spiro[2.3]hexan-1-yl)imidazo[1,2-b]pyridazin-6-yl)pyrimidine-2,4(1H,3H)-dione] | 5.81 and 5.60 | 5.70 and 5.60 | – |
| CC(C)(C)[C@H]1C[C@@H]1c1cc(-c2c[nH]c(=O)[nH]c2=O)nn2ccnc12 (racemic) [Example 6, 5-(8-((1S,2S)-2-(tert-butyl)cyclopropyl)imidazo[1,2-b]pyridazin-6-yl)pyrimidine-2,4-(1H,3H)-dione and 5-(8-((1R,2R)-2-(tert-butyl)cyclopropyl)imidazo[1,2-b]pyridazin-6-yl)pyrimidine-2,4-(1H,3H)-dione] | 6.79 | 6.74 | – |
| O=c1[nH]cc(-c2cc([C@H]3C[C@@H]3C3CC3)c3nccn3n2)c(=O)[nH]1 (racemic) [Example 8, 5-(8-((1R,2S)-[1,1′-bi(cyclopropan)]-2-yl)imidazo[1,2-b]pyridazin-6-yl)pyrimidine-2,4(1H,3H)-dione and 5-(8-((1S,2R)-[1,1′-bi(cyclopropan)]-2-yl)imidazo[1,2-b]pyridazin-6-yl)pyrimidine-2,4(1H,3H)-dione] | 7.54 and 7.34 | 7.44 and 7.33 | – |
| O=c1[nH]cc(-c2cc([C@H]3C[C@@H]3c3cccc(C(F)(F)F)c3)c3nccn3n2)c(=O)[nH]1 (racemic) [Example 41, 5-[8-[(1S,2S)-2-[3-(trifluoromethyl)phenyl]cyclopropyl]imidazo[1,2-b]pyridazin-6-yl]-1H-pyrimidine-2,4-dione and 5-[8-[(1R,2R)-2-[3-(trifluoromethyl)phenyl]cyclopropyl]imidazo[1,2-b]pyridazin-6-yl]-1H-pyrimidine-2,4-dione] | 7.21 | 7.73 | – |

The next lines start with the values.

| pIC50 [1] | pEC50 [2] | pEC50 [3] | Molecule |
| --- | --- | --- | --- |
| – | 8.54 | 8.12 | N#Cc1cc([C@H]2C[C@@H]2c2cc(-c3c[nH]c(=O)[nH]c3=O)nn3ccnc23)ccc1F (mixture of isomers) [Example 64, 5-((1S,2S)-2-(6-(2,4-dioxo-1,2,3,4-tetrahydropyrimidin-5-yl)imidazo[1,2-b]pyridazin-8-yl)cyclopropyl)-2-fluorobenzonitrile and 5-((1R,2R)-2-(6-(2,4-dioxo-1,2,3,4-tetrahydropyrimidin-5-yl)imidazo[1,2-b]pyridazin-8-yl)cyclopropyl)-2-fluorobenzonitrile] |
| – | 8.49 | – | COc1ccccc1[C@H]1C[C@@H]1c1cc(-c2c[nH]c(=O)[nH]c2=O)nn2ccnc12 (mixture of isomers) [Example 101, 5-(8-((1S,2S)-2-(2-methoxyphenyl)cyclopropyl)imidazo[1,2-b]pyridazin-6-yl)pyrimidine-2,4(1H,3H)-dione and 5-(8-((1R,2R)-2-(2-methoxyphenyl)cyclopropyl)imidazo[1,2-b]pyridazin-6-yl)pyrimidine-2,4(1H,3H)-dione] |
| 7.49 | 8.18 | – | O=c1[nH]cc(-c2cc([C@H]3C[C@@H]3c3ccc(C4CC4)cc3)c3nccn3n2)c(=O)[nH]1 (racemic) [Example 45, 5-(8-((1S,2S)-2-(4-cyclopropylphenyl)cyclopropyl)imidazo[1,2-b]pyridazin-6-yl)pyrimidine-2,4(1H,3H)-dione and 5-(8-((1R,2R)-2-(4-cyclopropylphenyl)cyclopropyl)imidazo[1,2-b]pyridazin-6-yl)pyrimidine-2,4(1H,3H)-dione] |
| 7.33 | 7.86 | – | O=c1[nH]cc(-c2cc([C@H]3C[C@@H]3c3cccc(OC(F)(F)F)c3)c3nccn3n2)c(=O)[nH]1 (racemic) [Example 47, 5-(8-((1S,2S)-2-(3-(trifluoromethoxy)phenyl)cyclopropyl)imidazo[1,2-b]pyridazin-6-yl) pyrimidine-2,4(1H,3H)-dione and 5-(8-((1R,2R)-2-(3-(trifluoromethoxy)phenyl)cyclopropyl)imidazo[1,2-b]pyridazin-6-yl) pyrimidine-2,4(1H,3H)-dione] |
| 7.90 | 8.19 | – | O=c1[nH]cc(-c2cc([C@H]3C[C@@H]3c3cc(F)cc(F)c3)c3nccn3n2)c(=O)[nH]1 (racemic) [Example 60, 5-(8-((1S,2S)-2-(3,5-difluorophenyl)cyclopropyl)imidazo[1,2-b]pyridazin-6-yl)pyrimidine-2,4(1H,3H)-dione and 5-(8-((1R,2R)-2-(3,5-difluorophenyl)cyclopropyl)imidazo[1,2-b]pyridazin-6-yl)pyrimidine-2,4(1H,3H)-dione] |
| 7.88 | 8.17 | – | O=c1[nH]cc(-c2cc([C@H]3C[C@@H]3c3cc(F)ccc3F)c3nccn3n2)c(=O)[nH]1 (racemic) [Example 65, 5-(8-((1S,2S)-2-(2,5-difluorophenyl)cyclopropyl)imidazo[1,2-b]pyridazin-6-yl)pyrimidine-2,4(1H,3H)-dione and 5-(8-((1R,2R)-2-(2,5-difluorophenyl)cyclopropyl)imidazo[1,2-b]pyridazin-6-yl)pyrimidine-2,4(1H,3H)-dione] |
| – | 7.87 | 7.55 | O=c1[nH]cc(-c2cc(N3C[C@@H](F)[C@@H](F)C3)c3nccn3n2)c(=O)[nH]1 [Example 77, 5-[8-[(3S,4R)-3,4-difluoropyrrolidin-1-yl]imidazo[1,2-b]pyridazin-6-yl]-1H-pyrimidine-2,4-dione and 5-[8-[(3R,4S)-3,4-difluoropyrrolidin-1-yl]imidazo[1,2-b]pyridazin-6-yl]-1H-pyrimidine-2,4-dione] |
